According to patent publication US8680126B2, “Fluorinated thiazoles for use in treating cancer” (Universitat de Barcelona, priority 2010, dated 2014):

Tests used:
[1] = system: Hep3B cells (hepatocellular carcinoma cell line with deleted TP53); test: Cell viability by crystal violet assay in Hep3B cells; format: cell-based, human; settings: 24 hours; for IC50: Homo sapiens, crystal violet assay; for loss of cell viability (dose-response): doses from 2 to 40 μM, crystal violet
Procedure: (§1) The human cell lines Jurkat (T lymphocytes from acute T cell leukemia), Ramos (B lymphocytes from Burkitt's lymphoma), TK6 (human lymphoblast cell line) HeLa (epithelial cervical carcinoma cell line), MDA-MB 231 (epithelial breast adenocarcinoma cell line), T98-G (glioblastoma cell line) and Hep3B (hepatocellular carcinoma cell line) were obtained from the European Collection of Cell Cultures.
(§2) Jurkat, Ramos, TK6 and CLL cells were grown in RPMI-1640 medium, and HeLa cells in DMEM medium, both containing 10% heat-inactivated fetal calf serum, 1% glutamine, and 1% penicillin-streptomycin. MDA-MB 231 cells were grown in DMEM/F-12 medium containing additionally 1% pyruvate. Hep3B cells were maintained in MEM medium supplemented with 10% fetal bovine serum. All were maintained at 37° C. in humidified atmosphere containing 5% carbon dioxide.
This method allows quantifying the amount of cells that survive after a toxic process, and it consists on cell staining with a colorant, crystal violet. This method is only useful when working with adherent cells that detached after undergoing a toxic process.
After the cells were incubated, in 12 or 24-well plates, with the different stimuli or inhibitors, the cell media was removed, and cells were washed twice with PBS. Then, a solution of Crystal violet at 0.2% (w/v) in 2% ethanol was added during 30 minutes. Following this, the staining solution was removed, and the wells were washed several times with PBS or distilled water until the excess staining that was not incorporated into the cells was eliminated. The plate was air-dried, and the stained cells were lysed in 10% SDS. By spectrophotometric analysis, the absorbance was measured at 595 nm.
The results were then calculated as the percentage of viable cells relative to control cells (cells incubated in the absence of treatment) at the indicated times.
Hep3B cells (hepatocellular carcinoma cell line with deleted TP53) were incubated with a range of doses from 2 to 40 μM of compounds Ia and Id for 24 hours.
(§3) The IC50 of compounds Ia and Id was calculated at 24 hours by flow cytometry analysis, except for Hep3B where crystal violet assay was used. The results are expressed in Table 4 as the percentage of viable cells in respect to untreated cells at 24 hours.

B-CLL cells = test: IC50 by flow cytometry in primary B-CLL cells; format: cell-based; settings: Homo sapiens, 24 hours
Procedure: as §2
(§4) Peripheral blood lymphocytes from CLL patients were obtained from the Haematology Unit at the IDIBELL-Hospital de Bellvitge, L'Hospitalet de Llobregat, Barcelona, Spain. CLL was diagnosed according to standard clinical and laboratory criteria. […] The purity of CLL samples was evaluated with allophycocyanin (APC)-conjugated anti-CD3 and phycoerythrin (PE)-conjugated anti-CD19 (Becton Dickinson, Frankiln Lakes, N.J., USA). Data were analysed by flow cytometry and the analysis was performed with the appropriate software.
(§5) 0.25-0.3×10^6 cells were washed in phosphate-buffered saline (PBS) and resuspended in 100 μl of annexin binding buffer and incubated with 1 μl of annexin V-Fluorescein-5-isothiocyanate (FITC) or annexin V-Allophycocyanin (APC). […] Data were analyzed using the appropriate software. […]
The IC50 of compounds Ia and Id was calculated at 24 hours by flow cytometry analysis, except for Hep3B where crystal violet assay was used. […]

[2] = system: T98-G cells (glioblastoma cell line with mutated TP53); test: Dose-response analysis of apoptosis by flow cytometry in T98-G cells; format: cell-based, human; settings: 24 hours; for IC50: Homo sapiens, T98G, flow cytometry; for induction of apoptosis (dose-response): T98-G, doses from 2 to 60 μM
Procedure: as §1
(§6) 0.25-0.3×10^6 cells were washed in phosphate-buffered saline (PBS) and resuspended in 100 μl of annexin binding buffer and incubated with 1 μl of annexin V-Fluorescein-5-isothiocyanate (FITC) or annexin V-Allophycocyanin (APC). After 20 min of incubation in the dark at room temperature, 100 μl of annexin binding buffer with 5 μl of propidium iodide (PI) (20 μg/ml) was added just before flow cytometric analysis. Data were analyzed using the appropriate software. Cell viability was measured by analysis of phosphatidylserine exposure and PI uptake and it is expressed as the percentage of annexin-V and PI double-negative cells.
T98-G cells (glioblastoma cell line with mutated TP53) were incubated with a range of doses from 2 to 60 μM of compounds Ia and Id for 24 hours.
as §3

[3] = system: Jurkat cell line (T lymphocytes from acute T cell leukemia, mutated TP53); test: Screening assay in Jurkat cells by measuring cell viability (flow cytometry), single dose; format: cell-based, human; parameters: key: “+” means low activity; “++” means good activity; “+++” means very good activity; “−” means no activity; settings: single dose of 40 μM, 24 hour-incubation
Procedure: as §1, §2, §6
A screening of the effect of compounds Ia-If was performed in Jurkat cell line (T lymphocytes form acute T cell leukemia) at a single dose of 40 μM for 24 hour-incubation.
Jurkat cells were selected among other leukemic tumor cell lines because they have the protein TP53 mutated.
Every compound mentioned above was dissolved in the minimum amount of DMSO necessary to be dissolved. Cell viability was measured by flow cytometry analysis. […] Thus, all the observed effects on cell viability are due to the compounds' activity.
The results are summarized in Table 2: “+” means low activity; “++” means good activity and “+++” means very good activity; “−” means no activity.

[4] = system: Ramos cells (B lymphocytes from Burkitt's lymphoma with mutated TP53); test: Dose-response analysis of apoptosis by flow cytometry in Ramos cells; format: cell-based, human; settings: 24 hours; for IC50: Homo sapiens, flow cytometry; for induction of apoptosis (dose-response): doses from 2 to 40 μM
Procedure: as §1, §2, §6
Ramos cells (B lymphocytes from Burkitt's lymphoma with mutated TP53) were incubated with a range of doses from 2 to 40 μM of compounds Ia and Id for 24 hours.
as §3

[5] = system: B-CLL cells from patients with mutated TP53; test: Dose-response analysis of apoptosis by flow cytometry in B-CLL cells, mutated TP53; format: cell-based, human; settings: B-CLL cells mutated TP53, doses from 1 to 20 μM, 24 hours
Procedure: as §2
as §4, with “criteria. Written informed consent was obtained from all patients, in accordance with the Hospital de Bellvitge's Ethical Committee.” for “criteria.”
as §5

[6] = system: B-CLL cells from patients with wild-type TP53; test: Dose-response analysis of apoptosis by flow cytometry in B-CLL cells, wild-type TP53; format: cell-based, human; settings: 24 hours; for induction of apoptosis (dose-response): B-CLL cells wild-type TP53, doses from 1 to 20 μM
Procedure: as §2
Peripheral blood lymphocytes from CLL patients were obtained from the Haematology Unit at the IDIBELL-Hospital de Bellvitge, L'Hospitalet de Llobregat, Barcelona, Spain. CLL was diagnosed according to standard clinical and laboratory criteria. Written informed consent was obtained from all patients, in accordance with the Hospital de Bellvitge's Ethical Committee. Mononuclear cells from heparinized peripheral blood samples were isolated by centrifugation on a Ficoll-Hypaque (Seromed, Berlin, Germany) gradient. The purity of CLL samples was evaluated with allophycocyanin (APC)-conjugated anti-CD3 and phycoerythrin (PE)-conjugated anti-CD19 (Becton Dickinson, Frankiln Lakes, N.J., USA). Data were analysed by flow cytometry and the analysis was performed with the appropriate software.
as §6
B-CLL cells from patients with wild-type TP53 were incubated with a range of doses from 1 to 20 μM of compounds Ia and Id for 24 hours. […]

[7] = system: MDA-MB-231 cells (epithelial breast adenocarcinoma cell line with mutated TP53); test: Dose-response analysis of apoptosis by flow cytometry in MDA-MB-231 cells; format: cell-based, human; settings: 24 hours; for IC50: Homo sapiens, MDA-MB-231, flow cytometry; for induction of apoptosis (dose-response): MDA-MB-231, doses from 2 to 60 μM
Procedure: as §1, §2, §6
MDA-MB-231 cells (epithelial breast adenocarcinoma cell line with mutated TP53) were incubated with a range of doses from 2 to 60 μM of compounds Ia and Id for 24 hours.
as §3

[8] = system: Jurkat cells (T lymphocytes from acute T cell leukemia with mutated TP53); test: Dose-response analysis of apoptosis by flow cytometry in Jurkat cells; format: cell-based; settings: Homo sapiens, 24 hours, flow cytometry (annexin-V negative cells in respect to untreated cells)
Procedure: as §1, §2, §6
(§7) Dose-response analysis was performed using Jurkat mutated-TP53 cancer cells and inactivated p53 cancer cell line HeLa.
(§8) Cell viability was measured by flow cytometry and it is expressed as the percentage of nonapoptotic cells (annexin-V negative) in respect to untreated cells at 24 hours. Therefore, values under 100% are indicative of apoptosis or loss of cell viability.
Jurkat cells (which are T lymphocytes from acute T cell leukemia with mutated TP53) were incubated with a range of doses from 1 to 40 μM of each compound for 24 hours.
(§9) The IC50 at 24 hours was calculated for each compound using flow cytometry analysis. The results are expressed in Table 3 as the percentage of nonapoptotic cells (annexin-V negative) in respect to untreated cells at 24 hours.
Jurkat cells (which are T lymphocytes from acute T cell leukemia with mutated TP53) were incubated with a range of doses from 5 to 40 μM of each compound for 24 hours.

[9] = system: TK6 cells (human lymphoblast cell line with wild-type TP53); test: Dose-response analysis of apoptosis by flow cytometry in TK6 cells; format: cell-based; settings: 24 hours; for IC50: Homo sapiens, TK6, flow cytometry; for induction of apoptosis (dose-response): TK6, doses from 2 to 40 μM
Procedure: as §1, §2, §6
TK6 cells (human lymphoblast cell line with wild-type TP53) were incubated with a range of doses from 2 to 40 μM of compounds Ia and Id for 24 hours.
as §3

[10] = system: HeLa cells (epithelial cervical carcinoma cell line with inactivated p53); test: Dose-response analysis of apoptosis by flow cytometry in HeLa cells; format: cell-based; settings: Homo sapiens, 24 hours, flow cytometry (annexin-V negative cells in respect to untreated cells)
Procedure: as §1, §2, §6, §7, §8
HeLa cells (epithelial cervical carcinoma cell line with inactivated p53) were incubated with a range of doses from 2 to 40 μM of each compound for 24 hours.
as §9
HeLa cells (epithelial cervical carcinoma cell line with inactivated p53) were incubated with a range of doses from 5 to 40 μM of each compound for 24 hours.

[11] = system: T cells (CLL cells from patients with wild-type TP53); test: Dose-response analysis by flow cytometry in T cells of CLL patients, wild-type TP53; format: cell-based, human; settings: doses from 5 to 40 μM, 24 hours
Procedure: Viability was measured by flow cytometry and it is expressed as the percentage of nonapoptotic cells (annexin-V FITC negative). A representative patient is shown.
as §2
Peripheral blood lymphocytes from CLL patients were obtained from the Haematology Unit at the IDIBELL-Hospital de Bellvitge, L'Hospitalet de Llobregat, Barcelona, Spain. […] The purity of CLL samples was evaluated with allophycocyanin (APC)-conjugated anti-CD3 and phycoerythrin (PE)-conjugated anti-CD19 (Becton Dickinson, Frankiln Lakes, N.J., USA). Data were analysed by flow cytometry and the analysis was performed with the appropriate software.
as §5

Row | Compound | IC50 [1] [µM] | loss of cell viability (dose-response) [1] | IC50 (B-CLL cells) [µM] | IC50 [2] [µM] | induction of apoptosis (dose-response) [2] | Biological activity [3] | IC50 [4] [µM] | induction of apoptosis (dose-response) [4] | induction of apoptosis (dose-response) [5] | induction of apoptosis (dose-response) [6] | IC50 [7] [µM] | induction of apoptosis (dose-response) [7] | IC50 [8] [µM] | IC50 [9] [µM] | induction of apoptosis (dose-response) [9] | IC50 [10] [µM] | sensitivity of T cells compared with B cells [11] | induction of apoptosis (dose-response) in B cells ([6]; CLL cells wild-type TP53, B cells, doses from 5 to 40 μM)
1 | Fc1nc(C2=NC(F)(F)C(F)(c3ccccc3)S2)sc1-c1ccccc1 (centres unmarked) [Ia, 4-fluoro-5-phenyl-2-(4,4,5-trifluoro-5-phenyl-4,5-dihydrothiazol-2-yl)thiazole] | 14 | induced a loss on cell viability in a dose-dependent manner | 4 | 50 | induced apoptosis in a dose-dependent manner | +++ | 4.5 | induced apoptosis in a dose-dependent manner | induced apoptosis in a dose-dependent manner | induced apoptosis in a dose-dependent manner | 16 | induced apoptosis in a dose-dependent manner | 4 | 8 | induced apoptosis in a dose-dependent manner | 20 |  | 
2 | FC1(F)N=C(c2ncc(-c3ccccc3)s2)SC1(F)c1ccccc1 (centres unmarked) [Ib, 5-phenyl-2-(4,4,5-trifluoro-5-phenyl-4,5-dihydrothiazol-2-yl)thiazole] |  |  |  |  |  | +++ |  |  |  |  |  |  | 3 |  |  | 8 |  | 
3 | FC1(F)N=C(c2ccccc2)SC1(F)c1ccccc1 (centres unmarked) [Ic, 4,4,5-trifluoro-2,5-diphenyl-4,5-dihydrothiazole] |  |  |  |  |  | ++ |  |  |  |  |  |  | 8 |  |  | 10 | less sensitive | induced apoptosis in a dose-dependent manner
4 | FC1(F)N=C(c2ccc(Cl)cc2)SC1(F)c1ccc(Cl)cc1 (centres unmarked) [Id, 4,4,5-trifluoro-2,5-bis(4-chlorophenyl)-4,5-dihydrothiazole] | 5 | induced a loss on cell viability in a dose-dependent manner | 5 | 7.5 | induced apoptosis in a dose-dependent manner | +++ | 3.5 | induced apoptosis in a dose-dependent manner | induced apoptosis in a dose-dependent manner | induced apoptosis in a dose-dependent manner | 4 | induced apoptosis in a dose-dependent manner | 3.5 | 2.5 | induced apoptosis in a dose-dependent manner | 1.75 |  | 
5 | FC1(F)N=C(c2ccc(-c3ccccc3)cc2)SC1(F)c1ccccc1 (centres unmarked) [Ie, 4,4,5-trifluoro-2-(biphenyl-4-yl)-5-phenyl-4,5-dihydrothiazole] |  |  |  |  |  | + |  |  |  |  |  |  | 20 |  |  | 3.5 |  | 
6 | CCOC(=O)c1ccc(C2=NC(F)(F)C(F)(c3ccc(C)cc3)S2)cc1 (centres unmarked) [If, ethyl 4-(4,4,5-trifluoro-5-(p-tolyl)-4,5-dihydrothiazol-2-yl)benzoate] |  |  |  |  |  | ++ |  |  |  |  |  |  | 8 |  |  | 17 |  | 
7 | Clc1ccc(-c2cnc(-c3ccc(Cl)cc3)s2)cc1 [comparative Ad, 2,5-bis(4-chlorophenyl)thiazole, reference compound] |  |  |  |  |  | − |  |  |  |  |  |  |  |  |  |  |  | 
